Reference: US20150105252A1, “SUBSTITUTED PYRAZOLES AS HERBICIDES” (E I DU PONT DE NEMOURS AND COMPANY, priority 2013, published 2015)

Key:
Test in all cases: Test C postemergence
oilseed rape = type: in vivo, Brassica napus; conditions: for Plant response rating (scale of 0 to 100 where 0 is no effect and 100 is complete control), Oilseed Rape: Postemergence, 31 g ai/ha, visually evaluated after 13 to 15 days; for Oilseed Rape plant response rating / Plant response rating, Oilseed Rape: postemergence; for Oilseed Rape plant response rating: 62 g ai/ha, scale 0 to 100
In short: (§1)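 In this greenhouse assay, seeded soil (loam plus sand) or emerged seedlings in peat-vermiculite medium were treated with formulated compound. Roughly two weeks later (13–15 days), each species was scored visually relative to controls, from 0 for no effect to 100 for complete control.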

soybean = type: in vivo, Glycine max; conditions: for Plant response rating (scale of 0 to 100 where 0 is no effect and 100 is complete control), Soybean: Postemergence, 31 g ai/ha, visually evaluated after 13 to 15 days; for Soybean plant response rating / Plant response rating, Soybean: postemergence; for Soybean plant response rating: 62 g ai/ha, scale 0 to 100
In short: as §1

galium = type: in vivo, Galium aparine; conditions: for Plant response rating (scale of 0 to 100 where 0 is no effect and 100 is complete control), Galium: Postemergence, 31 g ai/ha, visually evaluated after 13 to 15 days; for Galium plant response rating / Plant response rating, Galium: postemergence; for Galium plant response rating: 62 g ai/ha, scale 0 to 100
In short: as §1

barnyardgrass = type: in vivo, Echinochloa crus-galli; conditions: for Plant response rating (scale of 0 to 100 where 0 is no effect and 100 is complete control), Barnyardgrass: Postemergence, 31 g ai/ha, visually evaluated after 13 to 15 days; for Barnyardgrass plant response rating / Plant response rating, Barnyardgrass: postemergence; for Barnyardgrass plant response rating: 62 g ai/ha, scale 0 to 100
In short: as §1

oat, wild = type: in vivo, Avena fatua; conditions: for Plant response rating (scale of 0 to 100 where 0 is no effect and 100 is complete control), Oat, Wild: Postemergence, 31 g ai/ha, visually evaluated after 13 to 15 days; for Oat, Wild plant response rating / Plant response rating, Oat, Wild: postemergence; for Oat, Wild plant response rating: 62 g ai/ha, scale 0 to 100
In short: as §1

ragweed = type: in vivo, Ambrosia elation; conditions: for Plant response rating (scale of 0 to 100 where 0 is no effect and 100 is complete control), Ragweed: Postemergence, 31 g ai/ha, visually evaluated after 13 to 15 days; for Ragweed plant response rating / Plant response rating, Ragweed: postemergence; for Ragweed plant response rating: 62 g ai/ha, scale 0 to 100
In short: as §1

nutsedge, yellow = type: in vivo, Cyperus esculentus; conditions: for Plant response rating (scale of 0 to 100 where 0 is no effect and 100 is complete control), Nutsedge, Yellow: Postemergence, 31 g ai/ha, visually evaluated after 13 to 15 days; for Nutsedge, Yellow plant response rating / Plant response rating, Nutsedge, Yellow: postemergence; for Nutsedge, Yellow plant response rating: 62 g ai/ha, scale 0 to 100
In short: as §1

wheat = type: in vivo, Triticum aestivum; conditions: for Plant response rating (scale of 0 to 100 where 0 is no effect and 100 is complete control), Wheat: Postemergence, 31 g ai/ha, visually evaluated after 13 to 15 days; for Wheat plant response rating / Plant response rating, Wheat: postemergence; for Wheat plant response rating: 62 g ai/ha, scale 0 to 100
In short: as §1

kochia = type: in vivo, Kochia scoparia; conditions: for Plant response rating (scale of 0 to 100 where 0 is no effect and 100 is complete control), Kochia: Postemergence, 31 g ai/ha, visually evaluated after 13 to 15 days; for Kochia plant response rating / Plant response rating, Kochia: postemergence; for Kochia plant response rating: 62 g ai/ha, scale 0 to 100
In short: as §1

lambsquarters = type: in vivo, Chenopodium album; conditions: for Plant response rating (scale of 0 to 100 where 0 is no effect and 100 is complete control), Lambsquarters: Postemergence, 31 g ai/ha, visually evaluated after 13 to 15 days; for Lambsquarters plant response rating / Plant response rating, Lambsquarters: postemergence; for Lambsquarters plant response rating: 62 g ai/ha, scale 0 to 100
In short: as §1

pigweed = type: in vivo, Amaranthus retroflexus; conditions: for Plant response rating (scale of 0 to 100 where 0 is no effect and 100 is complete control), Pigweed: Postemergence, 31 g ai/ha, visually evaluated after 13 to 15 days; for Pigweed plant response rating / Plant response rating, Pigweed: postemergence; for Pigweed plant response rating: 62 g ai/ha, scale 0 to 100
In short: as §1

ryegrass, Italian = type: in vivo, Lolium multiflorum; conditions: for Plant response rating (scale of 0 to 100 where 0 is no effect and 100 is complete control), Ryegrass, Italian: Postemergence, 31 g ai/ha, visually evaluated after 13 to 15 days; for Ryegrass, Italian plant response rating / Plant response rating, Ryegrass, Italian: postemergence; for Ryegrass, Italian plant response rating: 62 g ai/ha, scale 0 to 100
In short: as §1

foxtail, giant = type: in vivo, Setaria faberii; conditions: for Plant response rating (scale of 0 to 100 where 0 is no effect and 100 is complete control), Foxtail, Giant: Postemergence, 31 g ai/ha, visually evaluated after 13 to 15 days; for Foxtail, Giant plant response rating / Plant response rating, Foxtail, Giant: postemergence; for Foxtail, Giant plant response rating: 62 g ai/ha, scale 0 to 100
In short: as §1

waterhemp = type: in vivo, Amaranthus rudis; conditions: for Plant response rating (scale of 0 to 100 where 0 is no effect and 100 is complete control), Waterhemp: Postemergence, 31 g ai/ha, visually evaluated after 13 to 15 days; for Waterhemp plant response rating / Plant response rating, Waterhemp: postemergence; for Waterhemp plant response rating: 62 g ai/ha, scale 0 to 100
In short: as §1

corn = type: in vivo, Zea mays; conditions: for Plant response rating (scale of 0 to 100 where 0 is no effect and 100 is complete control), Corn: Postemergence, 31 g ai/ha, visually evaluated after 13 to 15 days; for Corn plant response rating / Plant response rating, Corn: postemergence; for Corn plant response rating: 62 g ai/ha, scale 0 to 100
In short: as §1

[1] = 250 g ai/ha, scale 0 to 100 (0 no effect, 100 complete control)
[2] = 125 g ai/ha, scale 0 to 100, 0 no effect, 100 complete control

Q: What does the source list for `CCCc1cc(C(=O)NCC(F)(F)F)nn1Cc1ccnc(C(F)(F)F)c1` [Compound 105]?
A: Plant response rating (scale of 0 to 100 where 0 is no effect and 100 is complete control), Oilseed Rape (oilseed rape): 45; Oilseed Rape plant response rating (oilseed rape): 50; Plant response rating, Oilseed Rape (oilseed rape; [1]): 90; Plant response rating, Oilseed Rape (oilseed rape; [2]): 85; Plant response rating (scale of 0 to 100 where 0 is no effect and 100 is complete control), Soybean (soybean): 80; Soybean plant response rating (soybean): 80; Plant response rating, Soybean (soybean; [1]): 95; Plant response rating, Soybean (soybean; [2]): 95; Plant response rating (scale of 0 to 100 where 0 is no effect and 100 is complete control), Galium (galium): 55; Galium plant response rating (galium): 85; Plant response rating, Galium (galium; [1]): 90; Plant response rating, Galium (galium; [2]): 85; Plant response rating (scale of 0 to 100 where 0 is no effect and 100 is complete control), Barnyardgrass (barnyardgrass): 10; Barnyardgrass plant response rating (barnyardgrass): 20; Plant response rating, Barnyardgrass (barnyardgrass; [1]): 85; Plant response rating, Barnyardgrass (barnyardgrass; [2]): 45; Plant response rating (scale of 0 to 100 where 0 is no effect and 100 is complete control), Oat, Wild (oat, wild): 25; Oat, Wild plant response rating (oat, wild): 30; Plant response rating, Oat, Wild (oat, wild; [1]): 60; Plant response rating, Oat, Wild (oat, wild; [2]): 45; Plant response rating (scale of 0 to 100 where 0 is no effect and 100 is complete control), Ragweed (ragweed): 30; Ragweed plant response rating (ragweed): 40; Plant response rating, Ragweed (ragweed; [1]): 80; Plant response rating, Ragweed (ragweed; [2]): 65; Plant response rating (scale of 0 to 100 where 0 is no effect and 100 is complete control), Nutsedge, Yellow (nutsedge, yellow): 5; Nutsedge, Yellow plant response rating (nutsedge, yellow): 5; Plant response rating, Nutsedge, Yellow (nutsedge, yellow; [1]): 40; Plant response rating, Nutsedge, Yellow (nutsedge, yellow; [2]): 20; Plant response rating (scale of 0 to 100 where 0 is no effect and 100 is complete control), Wheat (wheat): 5; Wheat plant response rating (wheat): 5; Plant response rating, Wheat (wheat; [1]): 45; Plant response rating, Wheat (wheat; [2]): 10; Plant response rating (scale of 0 to 100 where 0 is no effect and 100 is complete control), Kochia (kochia): 90; Kochia plant response rating (kochia): 90; Plant response rating, Kochia (kochia; [1]): 95; Plant response rating, Kochia (kochia; [2]): 90; Plant response rating (scale of 0 to 100 where 0 is no effect and 100 is complete control), Lambsquarters (lambsquarters): 75; Lambsquarters plant response rating (lambsquarters): 95; Plant response rating, Lambsquarters (lambsquarters; [1]): 98; Plant response rating, Lambsquarters (lambsquarters; [2]): 95; Plant response rating (scale of 0 to 100 where 0 is no effect and 100 is complete control), Pigweed (pigweed): 75; Pigweed plant response rating (pigweed): 85; Plant response rating, Pigweed (pigweed; [1]): 90; Plant response rating, Pigweed (pigweed; [2]): 85; Plant response rating (scale of 0 to 100 where 0 is no effect and 100 is complete control), Ryegrass, Italian (ryegrass, Italian): 5; Ryegrass, Italian plant response rating (ryegrass, Italian): 10; Plant response rating, Ryegrass, Italian (ryegrass, Italian; [1]): 45; Plant response rating, Ryegrass, Italian (ryegrass, Italian; [2]): 30; Plant response rating (scale of 0 to 100 where 0 is no effect and 100 is complete control), Foxtail, Giant (foxtail, giant): 15; Foxtail, Giant plant response rating (foxtail, giant): 40; Plant response rating, Foxtail, Giant (foxtail, giant; [1]): 85; Plant response rating, Foxtail, Giant (foxtail, giant; [2]): 75; Plant response rating (scale of 0 to 100 where 0 is no effect and 100 is complete control), Waterhemp (waterhemp): 65; Waterhemp plant response rating (waterhemp): 75; Plant response rating, Waterhemp (waterhemp; [1]): 85; Plant response rating, Waterhemp (waterhemp; [2]): 75; Plant response rating (scale of 0 to 100 where 0 is no effect and 100 is complete control), Corn (corn): 15; Corn plant response rating (corn): 40; Plant response rating, Corn (corn; [1]): 85; Plant response rating, Corn (corn; [2]): 60

Q: Which results are given for `CCCc1cc(C(=O)NCC)nn1Cc1cc(C(F)(F)F)nn1C` [Compound 129]?
A: Plant response rating (scale of 0 to 100 where 0 is no effect and 100 is complete control), Oilseed Rape (oilseed rape): 60; Oilseed Rape plant response rating (oilseed rape): 60; Plant response rating, Oilseed Rape (oilseed rape; [1]): 70; Plant response rating, Oilseed Rape (oilseed rape; [2]): 65; Plant response rating (scale of 0 to 100 where 0 is no effect and 100 is complete control), Soybean (soybean): 85; Soybean plant response rating (soybean): 98; Plant response rating, Soybean (soybean; [1]): 98; Plant response rating, Soybean (soybean; [2]): 98; Plant response rating (scale of 0 to 100 where 0 is no effect and 100 is complete control), Galium (galium): 60; Galium plant response rating (galium): 65; Plant response rating, Galium (galium; [1]): 80; Plant response rating, Galium (galium; [2]): 80; Plant response rating (scale of 0 to 100 where 0 is no effect and 100 is complete control), Barnyardgrass (barnyardgrass): 5; Barnyardgrass plant response rating (barnyardgrass): 10; Plant response rating, Barnyardgrass (barnyardgrass; [1]): 55; Plant response rating, Barnyardgrass (barnyardgrass; [2]): 10; Plant response rating (scale of 0 to 100 where 0 is no effect and 100 is complete control), Oat, Wild (oat, wild): 30; Oat, Wild plant response rating (oat, wild): 30; Plant response rating, Oat, Wild (oat, wild; [1]): 35; Plant response rating, Oat, Wild (oat, wild; [2]): 35; Plant response rating (scale of 0 to 100 where 0 is no effect and 100 is complete control), Ragweed (ragweed): 55; Ragweed plant response rating (ragweed): 90; Plant response rating, Ragweed (ragweed; [1]): 85; Plant response rating, Ragweed (ragweed; [2]): 75; Plant response rating (scale of 0 to 100 where 0 is no effect and 100 is complete control), Nutsedge, Yellow (nutsedge, yellow): 0; Nutsedge, Yellow plant response rating (nutsedge, yellow): 0; Plant response rating, Nutsedge, Yellow (nutsedge, yellow; [1]): 5; Plant response rating, Nutsedge, Yellow (nutsedge, yellow; [2]): 5; Plant response rating (scale of 0 to 100 where 0 is no effect and 100 is complete control), Wheat (wheat): 0; Wheat plant response rating (wheat): 5; Plant response rating, Wheat (wheat; [1]): 5; Plant response rating, Wheat (wheat; [2]): 5; Plant response rating (scale of 0 to 100 where 0 is no effect and 100 is complete control), Kochia (kochia): 90; Kochia plant response rating (kochia): 90; Plant response rating, Kochia (kochia; [1]): 90; Plant response rating, Kochia (kochia; [2]): 90; Plant response rating (scale of 0 to 100 where 0 is no effect and 100 is complete control), Lambsquarters (lambsquarters): 55; Lambsquarters plant response rating (lambsquarters): 100; Plant response rating, Lambsquarters (lambsquarters; [1]): 98; Plant response rating, Lambsquarters (lambsquarters; [2]): 98; Plant response rating (scale of 0 to 100 where 0 is no effect and 100 is complete control), Pigweed (pigweed): 85; Pigweed plant response rating (pigweed): 95; Plant response rating, Pigweed (pigweed; [1]): 95; Plant response rating, Pigweed (pigweed; [2]): 100; Plant response rating (scale of 0 to 100 where 0 is no effect and 100 is complete control), Ryegrass, Italian (ryegrass, Italian): 0; Ryegrass, Italian plant response rating (ryegrass, Italian): 5; Plant response rating, Ryegrass, Italian (ryegrass, Italian; [1]): 5; Plant response rating, Ryegrass, Italian (ryegrass, Italian; [2]): 5; Plant response rating (scale of 0 to 100 where 0 is no effect and 100 is complete control), Foxtail, Giant (foxtail, giant): 15; Foxtail, Giant plant response rating (foxtail, giant): 20; Plant response rating, Foxtail, Giant (foxtail, giant; [1]): 45; Plant response rating, Foxtail, Giant (foxtail, giant; [2]): 35; Plant response rating (scale of 0 to 100 where 0 is no effect and 100 is complete control), Waterhemp (waterhemp): 65; Waterhemp plant response rating (waterhemp): 90; Plant response rating, Waterhemp (waterhemp; [1]): 90; Plant response rating, Waterhemp (waterhemp; [2]): 80; Plant response rating (scale of 0 to 100 where 0 is no effect and 100 is complete control), Corn (corn): 10; Corn plant response rating (corn): 10; Plant response rating, Corn (corn; [1]): 15; Plant response rating, Corn (corn; [2]): 15
